Drawing on US20250154173A1 (Merck Sharp & Dohme LLC, priority 2023, published 2025), this text covers EC50 for twelve compounds.

The assay concerns the target T1, GST-RIPK1 (recombinant GST-RIPK1 kinase domain (residues 1-327)) (Homo sapiens, UniProt Q13546).
T1 construct: recombinant GST-RIPK1 kinase domain (residues 1-327) enzyme produced from baculovirus-transfected Sf21 cells; host or cells: baculovirus-transfected Sf21 insect cells
T1 sequence (Q13546 1-327): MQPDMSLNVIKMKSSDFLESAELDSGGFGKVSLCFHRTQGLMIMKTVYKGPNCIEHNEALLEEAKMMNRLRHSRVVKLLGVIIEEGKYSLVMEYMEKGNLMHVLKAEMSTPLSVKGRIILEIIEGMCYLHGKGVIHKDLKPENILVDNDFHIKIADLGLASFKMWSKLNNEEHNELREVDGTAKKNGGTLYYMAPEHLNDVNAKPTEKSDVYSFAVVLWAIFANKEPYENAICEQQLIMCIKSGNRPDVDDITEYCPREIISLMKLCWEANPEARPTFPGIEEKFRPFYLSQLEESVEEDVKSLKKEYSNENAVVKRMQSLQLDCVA
The assay is described as follows: RIPK1-ADP-Glo Enzymatic Assay. The assay is classed as biochemical. The following applies: ten-point titration, top compound concentration of 100000 nM; 25 nM GST-RIPK1, 300 μM ATP, 3 μM dephosphorylated-MBP; 30 min pre-incubation, 150 min reaction. The procedure:
RIPK1-ADP-Glo Enzymatic Assay
The enzymatic activity of RIPK1 is measured using an assay derived from ADP-Glo kit (TMPromega), which provides a luminescent-based ADP detection system. Specifically, the ADP generated by RIPK1 kinase is proportionally detected as luminescent signals in a homogenous fashion. In this context, the assessment of the inhibitory effect of small molecules (EC50) is measured by the effectiveness of the compounds to inhibit the ATP to ADP conversion by RIPK1.
In this assay, the potency (EC50) of each compound was determined from a ten-point (1:3 serial dilution; top compound concentration of 100000 nM) titration curve using the following outlined procedure. To each well of a white ProxiPlus 384 well-plate, 30 nL of compound (1% DMSO in final assay volume of 3 μL) was dispensed, followed by the addition of 2 μL of 1× assay buffer (25 mM Hepes 7.3, 20 mM MgCl2, 50 mM NaCl, 1 mM DTT, 0.005% Tween20, and 0.02% BSA) containing 37.5 nM of GST-RIPK1 (recombinant GST-RIPK1 kinase domain (residues 1-327) enzyme produced from baculovirus-transfected Sf21 cells: MW=62 kDa). Plates were placed in an ambient temperature humidified chamber for a 30 minutes pre-incubation with compound. Subsequently, each reaction was initiated by the addition of 1 μL 1× assay buffer containing 900 μM ATP and 3 μM dephosphorylated-MBP substrate. The final reaction in each well of 3 μL consists of 25 nM of GST-RIPK1, 300 μM ATP, and 3 μM dephosphorylated-MBP. Kinase reactions were allowed to proceed for 150 minutes prior to adding ADP-Glo reagents per Promega's outlined kit protocol. Dose-response curves were generated by plotting percent effect (% product conversion; Y-axis) vs. Log 10 compound concentrations (X-axis). EC50 values were calculated using a non-linear regression, four-parameters sigmoidal dose-response model.
Background: ADP-Glo first removes unused ATP, then detects ADP through luciferase.

In the case of `O=C1N2[C@@H](CC[C@H]2c2cnccn2)OC12CC(OCc1cccc(F)c1)C2` (single isomer, unassigned) [Example 22.5], the 50% effective concentration (EC50) – broadly, the concentration that produces a half-maximal response – stood at 15 nM.

Regarding `N#Cc1ccc(COC2CC3(C2)O[C@@H]2CC[C@@H](c4cnccn4)N2C3=O)cc1` (single isomer, unassigned) [Example 22.7, 4-({[(5′S,7a′R)-3′-oxo-5′-(pyrazin-2-yl)tetrahydro-3′H-spiro[cyclobutane-1,2′-pyrrolo[2,1-b][1,3]oxazol]-3-yl]oxy}methyl)benzonitrile], the concentration for a half-maximal effect (EC50) was 29 nM.

For the compound `O=C1N2[C@@H](CC[C@H]2c2cnccn2)OC12CC(OCc1cccc(F)c1)C2` (single isomer, unassigned) [Example 22.8], the concentration giving a half-maximal response (EC50) came out at 35 nM.

Turning to `O=C1N2[C@@H](CC[C@H]2c2cnccn2)OC12CC(OCC1CCC1)C2` (single isomer, unassigned) [Example 23.1, (5′S,7a′R)-3-(cyclobutylmethoxy)-5′-(pyrazin-2-yl)tetrahydro-3′H-spiro[cyclobutane-1,2′-pyrrolo[2,1-b]oxazol]-3′-one], the EC50 amounted to 460 nM.

For `O=C1N2[C@@H](CC[C@H]2c2cnccn2)OC12CC(OCC1CCC1)C2` (single isomer, unassigned) [Example 23.2, (5′S,7a′R)-3-(cyclobutylmethoxy)-5′-(pyrazin-2-yl)tetrahydro-3′H-spiro[cyclobutane-1,2′-pyrrolo[2,1-b]oxazol]-3′-one], the EC50 was 577 nM.

Consider `O=C1N2[C@@H](CC[C@H]2c2cnccn2)OC12CC(OCC1CCCC1)C2` (single isomer, unassigned) [Example 23.3, (5′S,7a′R)-3-(cyclopentylmethoxy)-5′-(pyrazin-2-yl)tetrahydro-3′H-spiro[cyclobutane-1,2′-pyrrolo[2,1-b]oxazol]-3′-one], for which the EC50 was 316 nM.

Turning to `O=C1N2[C@@H](CC[C@H]2c2cnccn2)OC12CC(OCC1CCCC1)C2` (single isomer, unassigned) [Example 23.4, (5′S,7a′R)-3-(cyclopentylmethoxy)-5′-(pyrazin-2-yl)tetrahydro-3′H-spiro[cyclobutane-1,2′-pyrrolo[2,1-b]oxazol]-3′-one], the EC50 worked out at 649 nM.

As to `O=C1N2[C@@H](CC[C@H]2c2ccc(F)cn2)O[C@]12C[C@@H](OCc1ccccc1)C2` [Example 3.1, (1s,3R,5′S,7a′R)-3-(benzyloxy)-5′-(5-fluoropyridin-2-yl)tetrahydro-3′H-spiro[cyclobutane-1,2′-pyrrolo[2,1-b]oxazol]-3′-one], the EC50 was found to be 108 nM.

`O=C1N2[C@@H](CC[C@H]2c2cnccn2)O[C@]12C[C@H](OCc1ccccc1)C2` [Example 4.1, ((1r),3R,5′S,7a′R)-3-(benzyloxy)-5′-(pyrazin-2-yl)tetrahydro-3′H-spiro[cyclobutane-1,2′-pyrrolo[2,1-b]oxazol]-3′-one]: the EC50 worked out at 49 nM.

As to `O=C1N2[C@@H](CC[C@H]2c2cnccn2)OC12CC(OCc1ccccc1)C2` (stereo partly drawn) [Example 4.2, ((1s),3R,5′S,7a′R)-3-(benzyloxy)-5′-(pyrazin-2-yl)tetrahydro-3′H-spiro[cyclobutane-1,2′-pyrrolo[2,1-b]oxazol]-3′-one], the concentration giving a half-maximal response (EC50) came out at 24 nM.

Turning to `CC1(Oc2cc(C#N)ncn2)CC2(C1)O[C@@H]1CC[C@@H](c3cc(F)cc(F)c3)N1C2=O` (stereo partly drawn) [Example 5.1, 6-(((5′S,7a′R)-5′-(3,5-difluorophenyl)-3-methyl-3′-oxotetrahydro-3′H-spiro[cyclobutane-1,2′-pyrrolo[2,1-b]oxazol]-3-yl)oxy)pyrimidine-4-carbonitrile], the 50% effective concentration (EC50) was 57 nM.

Turning to `CC1(Oc2cc(C(N)=O)ncn2)CC2(C1)O[C@@H]1CC[C@@H](c3cc(F)cc(F)c3)N1C2=O` (stereo partly drawn) [Example 5.2, 6-(((5′S,7a′R)-5′-(3,5-difluorophenyl)-3-methyl-3′-oxotetrahydro-3′H-spiro[cyclobutane-1,2′-pyrrolo[2,1-b]oxazol]-3-yl)oxy)pyrimidine-4-carboxamide], the half-maximal effective concentration (EC50) was 121 nM.
